The NIST ThermoML archive (doi:10.1016/j.jct.2007.03.007)
± gives the expanded uncertainty stated by the source. One block for each molecule: values may come before it.

Key:
[1] = Liquid; for mass density: 101.33 kPa
[2] = refractive index (Na D-line) (dimensionless); conditions: 101.33 kPa, Liquid, Standard Abbe refractometry
[3] = 298.15 K, Vibrating tube method

mass density [1, 3]: 972 ± 2 kg/m3
vapor or sublimation pressure ([1]; 409.35 K): 95.5 ± 4 kPa
refractive index ([2]; 293.15 K): 1.4511 ± 0.0008
Compound: CC(=O)CC(C)=O [2,4-pentanedione]

mass density ([1]; 303.15 K, Vibrating tube method): 742 ± 2 kg/m3
vapor or sublimation pressure ([1]; 326.45 K): 95.5 ± 4 kPa
refractive index ([2]; 293.15 K): 1.369 ± 0.0008
Compound: COC(C)(C)C [2-methoxy-2-methylpropane]

mass density ([1]; 298.15 K): 776.5 ± 2 kg/m3
vapor or sublimation pressure ([1]; 352.15 K): 95.5 ± 4 kPa
vapor or sublimation pressure ([1]; 352.55 K): 95.5 ± 4 kPa
refractive index ([2]; 298.15 K): 1.3416 ± 0.0008
Compound: CC#N [acetonitrile]

mass density [1, 3]: 989.3 ± 2 kg/m3
vapor or sublimation pressure ([1]; 424.65 K): 95.5 ± 4 kPa
refractive index ([2]; 298.15 K): 1.5142 ± 0.0008
Compound: COc1ccccc1 [anisole]

Compound: Brc1ccccc1 [bromobenzene]
mass density [1, 3]: 1488.3 ± 2 kg/m3
vapor or sublimation pressure ([1]; 427.05 K): 95.5 ± 4 kPa
refractive index ([2]; 298.15 K): 1.5571 ± 0.0008

mass density [1, 3]: 781.3 ± 2 kg/m3
vapor or sublimation pressure ([1]; 354.05 K): 95.5 ± 4 kPa
refractive index ([2]; 298.15 K): 1.3751 ± 0.0008
Compound: CC(C)O [propan-2-ol]

mass density [1, 3]: 933.4 ± 2 kg/m3
vapor or sublimation pressure ([1]; 439.55 K): 95.5 ± 4 kPa
refractive index ([2]; 298.15 K): 1.3825 ± 0.0008
Compound: CCO[Si](OCC)(OCC)OCC [tetraethoxysilane]
